Assay results from patent publication US7361638B2, “Pharmaceutical combination for the treatment of tissue damage owing to an arterial irrigation defect” (Centro de Ingenieria Genetica y Biotecnologia, priority 2001, dated 2008).
“Also recorded” adds a separate entry of the source. Marks after values point to notes of the source that are not given here. Non-standard residues stand in square brackets, D forms with d. No end group written: not given here.

What was measured:
[1] = system: Intestinal Ischemia/Reperfusion Model; test: Intestinal ischemia/reperfusion model (2 hours ischemia, 3 hours reperfusion); assay type: in vivo, Sprague Dawley rats; conditions: 2 h ischemia, 3 h reperfusion
Method: Male Sprague Dawley (220-250 g) rats were randomly assigned to the following treatment groups: I: ischemia/normal saline. […] III: Ischemia/GHRP-6 100 μg/rat. IV: Ischemia/combination -EGF (5 μg)/GHRP-6 (2 μg)/rat. All the treatments were intraperitoneally administered 30 minutes prior to beginning the ischemia period. […] The artery was clamped for a period of 2 hours, thus provoking a severe ischemia time on the jejunum and ileum portions of the small intestine. Reperfusion was allowed for 3 hours. Rats were euthanized and subjected to complete autopsy. The small intestine was resected and the length of hemorrhagic mucosal and/or luminal damage was registered. Luminal content was flushed out with a standard volume of saline to determine the hemoglobin content. Intestinal mucosa was washed with warm normal saline, weighed and fragments used to determine total protein content by Lowry method. Other fragments were used for total DNA content and microscopic analysis. Villi/mucosal damage was microscopically analyzed as described by Chiu. This scale considers Grade 0 as intact mucosa progressing to Grade 5 as full-thickness denudation.

[2] = system: rat model of renal bilateral ischemia/reperfusion; test: Renal ischemia/reperfusion, second phase (3 hours ischemia, similar reperfusion time); assay type: in vivo, Wistar rats; conditions: 3 h ischemia; for Urine output during the reperfusion period: EGF 20 μg, GHRP 50 μg, combination, mean and SD
Method: (§1) Renal arteries were clamped with microvascular clamps (Moria, Fine Science Tools, USA) for 60 minutes. After 3 hours of reperfusion the animals were monitored for another 30 minutes to establish renal functioning.
(§2) Glomerular filtration rate (GFR) and the renal plasmatic flow (RPF) were studied using molecular weight markers as inulin and p-amino hypuric. Clearance coefficients were determined as follows:
(§3) A catheter was fixed in the urinary bladder and the urethra was clamped. The free end of the catheter was inserted in a graduated tube and the urine volume was collected during 10 minutes.
Renal tissue samples were fixed in 10% buffered formalin, paraffin embedded, H&E stained and studied by independent pathologists using the following criteria: number of collapsed glomeruli, cortical hemorrhage, medullar hemorrhage, severe tubular damage, and severe interstitial damage.
During a second phase study, a larger ischemia period was introduced which allowed for studying the effect of the peptide in a more practical model with respect to the clinical practice. Kidneys were exposed to a 3 hours ischemia period and a similar reperfusion time.

[3] = system: Experimental Model of Multiple Organ Damage by Extensive Burns; test: Multiple organ damage by extensive burns (25% body surface scald), intestinal regeneration; assay type: in vivo, Balb/c mice; conditions: for Final weight (body weight) / % Increase of body weight: 10th day following scalding; for Final weight (body weight): after 20 administrations, table prints EGF 0.01 μg, GHRP 0.01 μg, mean and SD, in g (unit assumed); for Crypts depth / No. of crypts in fission (×200) / Villous height / No. of metaphases per crypt (×200): day 10 post-scalding; for % Increase of body weight: initial to final weight; for No. of metaphases per crypt (×200): vincristine 1 mg/kg six hours prior to death
Method: The dorsal region of Balb/c mice (22-25 g) was depilated and subjected to hypodermic scalding involving a 25% of body surface area, by immersion in equilibrated water at 95-97° C. for 5 seconds. All the mice received 1.5 ml of normal saline solution as fluid resuscitation immediately after. This animal model had been previously established and calibrated in our laboratory, and is useful to our goals as extensive internal changes are steadily reproduced. On the next 24 hours the surviving mice were randomly assigned to the following groups: Reference. Sham burned mice receiving saline 0.9% (N=5). Scalded receiving only normal saline 0.9%. […] Scalded and treated with GHRP-6 (N=9; 0.1 μg GHRP-6/animal). Scalded, treated with the peptide combination (N=10). […] Administrations were done twice a day and until day 10 post-scalding. Once the treatments were completed, animals were weighed again and euthanized for necropsy and microscopic examination. Six hours prior to death, every mouse received an injection of vincristine (1 mg/kg) to arrest cells on metaphase. Intestines were resected, flushed and weighed. Fragments were collected for total DNA and protein content. Other fragments were formalin fixed and used for routine processing or intestinal microdissection of villi and crypts. Morphometric procedures on the microscopic slides were derived from the […] image processing system. The following parameters were considered in this study: Animal weight. Intestinal weight, protein and DNA content. Number of cells in metaphase per crypt. Number of branching crypts. Villous height. Crypts depth.

[4] = system: rat model of renal bilateral ischemia/reperfusion; test: Renal bilateral ischemia/reperfusion, first phase (1 hour ischemia, 3 hour reperfusion); assay type: in vivo, Wistar rats; conditions: 1 h ischemia, 3 h reperfusion; for Glomerular Filtration Rate / Renal Plasmatic Flow / Urine output during the reperfusion period: EGF 20 μg; for Glomerular Filtration Rate / Renal Plasmatic Flow: GHRP-6 50 μg, combination EGF 5 μg + GHRP-6 10 μg per rat i.p.; for Urine output during the reperfusion period: i.p. 30 min before ischemia, GHRP 50 μg, combination EGF 5 μg + GHRP-6 10 μg per rat, mean and SD; for Renal failure / oliguria, result in words: versus saline-treated ischemic controls
Method: The potential nephroprotective effects of each of the peptides alone or in combination was studied in a rat model of renal bilateral ischemia/reperfusion. In a first phase trial, a ischemia period of 1 hour followed by a 3 hour reperfusion period was established. Female Wistar rats (200-220 g) were randomly assigned to the following experimental groups (N=10):
Group II: Ischemic and normal saline solution 0.9%.
Group IV: Ischemic and GHRP −6-50 μg/rat.
All the treatments were intraperitoneally administered 30 minutes before ischemia.
as §1, §2
Uv(m) maximal urine volume per minute. […]
as §3
Renal tissue samples were homogenized in KCI/histidine (pH7.3) buffer and the supernatant was used to measure the activity of the enzymes PLA2, catalase, as the MDA reactive metabolite.
Renal tissue samples were fixed in 10% buffered formalin, paraffin embedded, H&E stained and studied by independent pathologists using the following criteria: number of collapsed glomeruli, cortical hemorrhage, medullar hemorrhage, severe tubular damage, and severe interstitial damage. […] GHRP-6 intervention increased urine formation 4 times as compared to saline treated animals, which argues in favor of renal functional protection.

[5] = system: gastric mucosa of animals exposed to a severe systemic stress; test: Acute gastric stress damage model (cold swim and restraint); assay type: in vivo, OF-1 mice
Method: Adult, male OF-1 mice (20-23 g) were randomly assigned to receive GHRP-6 (0.1 μg/animal) or normal saline solution 0.9% (both i.p.). Ten to thirty minutes later animals were forced to swim in cold water for 30 minutes and later restrained for another 20 minute period at 4° C. Animals were thereafter anesthetized and euthanized for gastric mucosa inspection. Samples were fixed in 10% buffered formalin and H&E, and PAS stained for microscopic examination. Erosion, hemorrhage, and ulceration were the gross pathology criteria considered in the experiment (Playford RJ. Peptides and gastrointestinal mucosa integrity. Gut 1995, 37: 595-597). Microscopic ulceration was only considered when deeper than the first third of the glandular mucosa. Luminal bleeding was studied by measuring hemoglobin by the cyano metahemoglobin method (Reactivos Spinreact, Barcelona). Data were expressed in g/dL. All determinations were done in a blind fashion using a sham group.

[6] = system: Intestinal Ischemia/Reperfusion Model; test: Survival after intestinal ischemia/reperfusion, monitored for 96 hours; assay type: in vivo, Sprague Dawley rats; conditions: 96 hours of reperfusion; N = 10; EGF 500 μg, GHRP-6 100 μg, EGF 5 μg + GHRP-6 2 μg
Method: In order to fully elucidate the protective effect of the combination treatment in this model of intestinal ischemia/reperfusion, survival was monitored until 96 hours of reperfusion.
A second and independent experiment was conducted in order to learn if the combination stimulated animals' survival. Experimental methodology is as described above. All the rats received an intraperitoneal injection of lactated Ringer following wound closure. Animals were monitored for 96 hours once reperfusion was initiated. […] (Table 9).

[7] = EGF 500 μg, GHRP-6 100 μg, combination EGF 5 μg + GHRP-6 2 μg per rat i.p.
[8] = GHRP-6 0.1 μg/animal i.p. 10-30 min before stress, 20 mice per group

Row | Substance | Intestinal mucosal protection, result in words [1] | Nephroprotection / urine volume, result in words [2] | Percent of animals/group showing Cortical Hemorrhage [2] | Percent of animals/group showing Damaged Glomeruli [2] | Percent of animals/group showing Interstitial Damage [2] | Percent of animals/group showing Medullar Hemorrhage [2] [%] | Urine output during the reperfusion period [2] | Final weight (body weight) [3] | Crypts depth [3] [μm] | No. of crypts in fission (×200) [3] | Villous height [3] [μm] | % Increase of body weight [3] [%] | No. of metaphases per crypt (×200) [3] | Glomerular Filtration Rate [4] [ml/min/100 g] | Renal Plasmatic Flow [4] [ml/min/100 g] | Urine output during the reperfusion period [4] | Renal failure / oliguria, result in words [4] | other results
1 | EGF: Epidermal Growth Factor of natural, synthetic or recombinant origins | minimal protection | negligible and contains hemoglobin | 70% | 80% | 80% | 80 | 83 ± 21 | 28.2 ± 3.3 | 48 ± 9 | 25 ± 8 | 118.7 ± 19 | 27 | 101 ± 35 | 0.3 ± 0.15 | 1.2 ± 0.61 | 114 ± 51 | attenuated the oliguria; also recorded: partially attenuate renal failure | DMA content [1, 7]: 0.4 ± 0.11 µg/cm; Luminal hemoglobin [1, 7]: 3.5 ± 1.02 g/dL; Mucosal Weight [1, 7]: 10.7 ± 4.5 g; Proteins Content [1, 7]: 1.08 ± 0.6 mg/cm; % of intestinal damage ([1]; i.p. 30 min before ischemia, EGF 500 μg, GHRP-6 100 μg, combination EGF 5 μg + GHRP-6 2 μg per rat, mean and SD): 78.7 ± 2.8%; Glomerular Filtration Rate [2]: 0.24 ± 0.15 ml/min/100 g; Renal Plasmatic Flow [2]: 0.6 ± 0.05 ml/min/100 g
2 | H[dW]AW[dF]K-NH2 [GHRP-6] | partial protection | Partial nephroprotection | 40♦ percent | 60♦ percent | 30♦ percent | 80 | 168 ± 33 | 28.4 ± 1.8 | 40.8 ± 13 | 19 ± 6 | 99.2 ± 10 | 23 | 59 ± 12 | 0.46 ± 0.23 | 1.88 ± 0.8 | 208 ± 47 | partially attenuate renal failure | Epithelial Erosion, number of animals [5, 8]: 6; Epithelial Erosion, percent of animals [5, 8]: 30%; Luminal Hemorrhage, number of animals [5, 8]: 0 (0%)*; Luminal Hemorrhage, percent of animals [5, 8]: 0 (0%)*; Mucosal Hemorrhage, number of animals [5, 8]: 0 (0%)*; Mucosal Hemorrhage, percent of animals [5, 8]: 0 (0%)*; Total of ulcers ([5]; GHRP-6 0.1 μg/animal i.p., 20 mice per group): 3*; Luminal hemoglobin ([5]; GHRP-6 0.1 μg/animal i.p., cyano metahemoglobin method): 0* g/dL; Percent of animals/group showing Tubular Damage [2]: 50♦ percent; Increase of urine formation compared to saline treated animals ([4]; GHRP-6 50 μg/rat i.p.): 4 times; Survival (%) [6]: 40%
